# From ChEMBL document CHEMBL1201862, “PubChem BioAssay data set” (2004)
#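 Each compound was tested at five concentrations against cells in 96-well plates for 48 hours. GI50 is the concentration that inhibits growth by half.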 Active and inactive are the calls of the source. Cut-off read from the data, not from the text of the source: active = GI50 up to about 1.1 µM and inactive = higher.
# Legend:
# Test in all cases: DTP human tumour cell line panel, 48 h
# UACC-62 = system: UACC-62
# A498 = system: A498
# UACC-257 = system: UACC-257
# CAKI-1 = system: CAKI-1
# NCI-H23 = system: NCI-H23
# HL-60 = system: HL-60
# RPMI-8226 = system: RPMI-8226
# SF-539 = system: SF-539
# HT-29 = system: HT-29
# IGROV-1 = system: IGROV-1
# OVCAR-5 = system: OVCAR-5
# LOX IMVI = system: LOX IMVI
# HOP-62 = system: HOP-62
# NCI-H522 = system: NCI-H522
# SR = system: SR
# SF-295 = system: SF-295
# Malme-3M = system: Malme-3M
# SN12C = system: SN12C
# NCI-H460 = system: NCI-H460
# HCT-15 = system: HCT-15
Compound,GI50 (UACC-62),GI50 (A498),GI50 (UACC-257),GI50 (CAKI-1),GI50 (NCI-H23),GI50 (HL-60),GI50 (RPMI-8226),GI50 (SF-539),GI50 (HT-29),GI50 (IGROV-1),GI50 (OVCAR-5),GI50 (LOX IMVI),GI50 (HOP-62),GI50 (NCI-H522),GI50 (SR),GI50 (SF-295),GI50 (Malme-3M),GI50 (SN12C),GI50 (NCI-H460),GI50 (HCT-15) [µM]
OC1C2CN3CCN(C2)CC1(c1ccccc1)C3 (stereo unspecified),> 100 µM (inactive),> 100 µM (inactive),> 100 µM (inactive),> 100 µM (inactive),> 100 µM (inactive),> 100 µM (inactive),> 100 µM (inactive),> 100 µM (inactive),> 100 µM (inactive),> 100 µM (inactive),> 100 µM (inactive),> 100 µM (inactive),> 100 µM (inactive),> 100 µM (inactive),> 100 µM (inactive),> 100 µM (inactive),> 100 µM (inactive),> 100 µM (inactive),–,–
N#Cc1nc(COCCOCc2ccc(F)cc2)oc1N,> 100 µM (inactive),> 100 µM (inactive),> 100 µM (inactive),> 100 µM (inactive),> 100 µM (inactive),> 100 µM (inactive),> 100 µM (inactive),> 100 µM (inactive),> 100 µM (inactive),> 100 µM (inactive),> 100 µM (inactive),> 100 µM (inactive),> 100 µM (inactive),29 µM (inactive),> 100 µM (inactive),> 100 µM (inactive),–,> 100 µM (inactive),> 100 µM (inactive),> 100
CC(CN1CCN(CC(C)Nc2ccnc3cc(Cl)ccc23)CC1)Nc1ccnc2cc(Cl)ccc12 (stereo unspecified),17.9 µM (inactive),18 µM (inactive),19.4 µM (inactive),35.4 µM (inactive),18.6 µM (inactive),8.93 µM (inactive),9.79 µM (inactive),16 µM (inactive),6.93 µM (inactive),–,23.2 µM (inactive),3.76 µM (inactive),22.5 µM (inactive),20.7 µM (inactive),1.83 µM (inactive),19.6 µM (inactive),21.2 µM (inactive),22.4 µM (inactive),14.7 µM (inactive),15.7
O=[N+]([O-])C1C2C=CC(C2)[C@H]1c1ccc(Cl)cc1Cl (stereo partly specified),–,55 µM (inactive),31.8 µM (inactive),> 10 µM (inactive),36.7 µM (inactive),19.3 µM (inactive),24.9 µM (inactive),35.8 µM (inactive),21.4 µM (inactive),–,75.2 µM (inactive),29.7 µM (inactive),> 10 µM (inactive),> 10 µM (inactive),35.7 µM (inactive),24.8 µM (inactive),42.3 µM (inactive),67 µM (inactive),36.2 µM (inactive),43.3
CC(C)(C)O/N=C/c1cc(NC(=S)c2ccsc2)ccc1Cl,15.5 µM (inactive),10.5 µM (inactive),12.6 µM (inactive),16.6 µM (inactive),7.41 µM (inactive),17.2 µM (inactive),2.75 µM (inactive),18 µM (inactive),13.3 µM (inactive),16.7 µM (inactive),17.7 µM (inactive),16 µM (inactive),16 µM (inactive),13.3 µM (inactive),3.36 µM (inactive),11.6 µM (inactive),14.3 µM (inactive),17.1 µM (inactive),–,14.6
Oc1ccc(/C=N/c2ccccc2O)cc1,37.5 µM (inactive),> 100 µM (inactive),22.3 µM (inactive),68.1 µM (inactive),30.3 µM (inactive),12.7 µM (inactive),22.5 µM (inactive),71.3 µM (inactive),69 µM (inactive),54.7 µM (inactive),> 100 µM (inactive),26.1 µM (inactive),67 µM (inactive),29.3 µM (inactive),48.6 µM (inactive),52.2 µM (inactive),–,> 100 µM (inactive),38.9 µM (inactive),21.3
CN(C)CC/C(=N\Nc1ccc(Cl)c(Cl)c1)c1ccccc1,1.95 µM (inactive),2.81 µM (inactive),3 µM (inactive),–,1.84 µM (inactive),2.29 µM (inactive),2.31 µM (inactive),1.82 µM (inactive),1.96 µM (inactive),2.18 µM (inactive),2.56 µM (inactive),1.69 µM (inactive),2.4 µM (inactive),2.16 µM (inactive),2.13 µM (inactive),1.9 µM (inactive),3.24 µM (inactive),2.14 µM (inactive),1.85 µM (inactive),1.98
c1ccc(-c2ccc(-c3ccc(C4=NCCN4)cc3)o2)cc1,1.77 µM (inactive),1.76 µM (inactive),2.15 µM (inactive),2.34 µM (inactive),4.32 µM (inactive),1.79 µM (inactive),0.94 µM (active),2.11 µM (inactive),1.77 µM (inactive),2.74 µM (inactive),2.69 µM (inactive),1.93 µM (inactive),3.67 µM (inactive),2.02 µM (inactive),0.773 µM (active),1.92 µM (inactive),–,2.99 µM (inactive),2.4 µM (inactive),1.87
OC1(C(O)(c2ccc(-c3ccccc3)cc2)c2ccc(-c3ccccc3)cc2)CCCCC1,> 100 µM (inactive),> 100 µM (inactive),> 100 µM (inactive),> 100 µM (inactive),> 100 µM (inactive),> 100 µM (inactive),> 100 µM (inactive),> 100 µM (inactive),87.9 µM (inactive),> 100 µM (inactive),> 100 µM (inactive),> 100 µM (inactive),> 100 µM (inactive),> 100 µM (inactive),28.6 µM (inactive),> 100 µM (inactive),–,> 100 µM (inactive),44 µM (inactive),23
N#CC[C@@H](O)COc1ccccc1,> 100 µM (inactive),> 100 µM (inactive),> 100 µM (inactive),> 100 µM (inactive),> 100 µM (inactive),> 100 µM (inactive),> 100 µM (inactive),> 100 µM (inactive),> 100 µM (inactive),–,> 100 µM (inactive),> 100 µM (inactive),> 100 µM (inactive),> 100 µM (inactive),> 100 µM (inactive),> 100 µM (inactive),> 100 µM (inactive),> 100 µM (inactive),> 100 µM (inactive),> 100
COC(=O)/C=C/c1ccc2c(c1)CC1(Cc3ccccc3C1)C2,15.2 µM (inactive),> 100 µM (inactive),> 100 µM (inactive),–,55.7 µM (inactive),30.5 µM (inactive),60.7 µM (inactive),> 100 µM (inactive),79.4 µM (inactive),> 100 µM (inactive),> 100 µM (inactive),> 100 µM (inactive),> 100 µM (inactive),56.9 µM (inactive),32.6 µM (inactive),> 100 µM (inactive),> 100 µM (inactive),> 100 µM (inactive),–,> 100
